Measured values published in patent publication US4721707A, “Complex salt” (priority 1982, dated 1988).
Entries after “also recorded” stand apart in the source; their conditions may differ.

What was measured:
patients = conditions: infusion in patients; listed as TMC; cited from earlier work
blood pressure [1] = conditions: TMC; cited from earlier work
blood pressure [2] = assay: Infusion dosage required to achieve a given lowering of the blood pressure in a cat under Nembutal narcosis (Table I, FIG. 4); format: in vivo; parameters: key to Infusion dosage required for lowering of blood pressure (symbol): *: Limit of activity and/or predominance of toxic side effects; conditions: for Infusion dosage required for lowering of blood pressure / Infusion dosage required for lowering of blood pressure (symbol): i.v. infusion
Protocol: This is evident, for example, from the following experiment:
The various infusion solutions listed below were infused i.v. in succession, with appropriate recovery intervals, into a male, spontaneously respiring cat weighing 3.7 kg under Nembutal narcosis, and the dosages required to achieve a given lowering of the blood pressure were determined.
For the preparation of the infusion solutions, the substances or their concentrated stock solutions were diluted with 0.9% sodium chloride solution to a uniform infusion strength of 9 mg/100 ml (90 ug/ml). All solutions were freshly prepared and infused with the exclusion of light (aluminium foil) corresponding to the dosages given below.
The values given in Table I hereinafter were determined graphically.
FIG. 4, a comparison of equieffective doses of A, B, C, D and E, is derived from the figures in Table I, and further indicates the unobvious superiority of infusion solutions having a weight ration of less than 1:10 of the salts.
On the Y-axis, the weight percent of the trimethaphan ion in trimethaphan camsylate needed to achieve the indicated level of hypotension reduction is always set at 100% for each level, indicating the infusion solution of C. The X-axis measures the weight of nitroprusside ion expressed as a weight percent of the trimethaphan ion needed; B, having no trimethaphan, is set at 0 weight percent. The percents for A, D, and E are as indicated.
The hypotenuse of the triangle indicates the hypotensive effect expected to result from using mixtures of nitroprusside and trimethaphan ions. […] The lower and more to the left the values are, the higher the degree of synergism.

[3] = Solubility of SNP, TMC, TNP and mixtures (Example 10); format: physicochemical; conditions: for amount of solvent giving clear solution: 22° C., SNP 50 mg, TMC 250 mg; for solubility of mixtures / TNP: borderline amount of solvent: 50 + 500 mg (1 + 10)
Protocol: At room temperature (22° C.) clear solutions were obtained in the following solvents from the following compounds: […]

rats = conditions: i.v.; cited from earlier work
[4] = Solubility / dissolution of I and of mixtures of I and sodium thiosulphate pentahydrate; format: physicochemical; conditions: for solubility in weaker ethanol: weaker than 50% ethanol
Protocol: Mixtures of I and thiosulphate must not however, be heated in solution above 50° C., since otherwise the trimethaphan cation can decompose.
Therefore, the problem arose to find a physiologically acceptable solvent in which a mixture of I and thiosulphate in the weight ratio of about 1:1 to about 1:40 can dissolve to at least 5-10%, in a temperature range which for practical reasons should embrace temperatures between about 15° C. and about 35° C. Moreover, the concentrated solution should be able to dissolve without problem in the amount (250-1000 ml) of physiological sodium chloride solution or isotonic (5%) glucose solution required for final dilution.
For example, the mixture of 50 mg of I and 1000 mg of sodium thiosulphate pentahydrate dissolved

[5] = format: physicochemical; conditions: room temperature; for storability: light excluded
Protocol: (§1) The semihydrate forms compact needles from water (1/2H2 O calculated 0.94%, found 1.00%). […] Its solubility in water is 0.2% at room temperature. Its solubility in 60% ethanol is much better, and is about 3% at room temperature.
For the preparation of an infusion solution, the ampoule contents are dissolved in at least 220, at most 900 ml of sterile 0.9% sodium chloride solution or 5% glucose solution by vigorous shaking for a short time, whereafter the volume is brought to 250, 500 or 1000 ml. The infusion vessels and tubes are either to be covered with aluminum foil or must consist of material which is opaque to light.
50 mg of finely pulverized (+)-bis-(trimethaphan)-nitroprusside are filled into a sterilized, brown 5 ml flask closable with a synthetic stopper. 3 ml of 60% ethanol are sealed in a solvent ampoule and sterilized. […] Immediately before use the solid substance is dissolved in the solvent and the thus-obtained stock solution is used for the preparation of the infusion solution.

[6] = Solubility of (+)-bis-(trimethaphan)-nitroprusside and its semihydrate (Example 1); format: physicochemical
From the text: as §1

## O=C1N(Cc2ccccc2)C2C[S+]3CCCC3C2N1Cc1ccccc1 (stereo not shown) [C, trimethaphan camsylate, reference compound]
patients
  side effects: tachycardia, mydriasis, cycloplegia, urine retention, xerostomia and constipation; also recorded: nausea or vomiting; also recorded: allergies
Blood pressure [1]
  dosage required for the controlled lowering of blood pressure: about 30 ug/kg or more per minute
Blood pressure [2]; -20 mm Hg, cat
  Infusion dosage required for lowering of blood pressure: 6.0 ug/kg · min
Blood pressure [2]; -30 mm Hg, cat
  Infusion dosage required for lowering of blood pressure: 18 ug/kg · min
Blood pressure [2]; -40 mm Hg, cat
  Infusion dosage required for lowering of blood pressure: 55 ug/kg · min
Blood pressure [2]; -50 mm Hg, cat
  Infusion dosage required for lowering of blood pressure (symbol): *
Blood pressure [2]; -55 mm Hg, cat
  Infusion dosage required for lowering of blood pressure (symbol): *
Blood pressure [2]; -75 mm Hg, cat
  Infusion dosage required for lowering of blood pressure (symbol): *
Blood pressure [2]; cat, comparison among A to E
  activity compared with other test substances (in words): significantly less active
Blood pressure [2]; lowering of blood pressure, cat
  limit of activity: -40 mm Hg
[3]; 5% dextrose
  amount of solvent giving clear solution: 10 mL
[3]; 40% ethanol
  amount of solvent giving clear solution: 10 mL
[3]; 60% ethanol
  amount of solvent giving clear solution: 2 mL
[3]; water
  amount of solvent giving clear solution: 10 mL

## O=S([O-])([O-])=S.[Na+].[Na+] [sodium thiosulphate, reference compound]
rats
  LD50: 2500 mg/kg
[4]; especially at temperatures <50° C.
  solubility in over 40% ethanol: only very limited solubility
[4]
  solubility in weaker ethanol: better solubility

## (+)-bis-/(3aS,8aR,8bR)-1,3-dibenzyldecahydro-2-oxoimidazo[4,5-c]thieno[1,2-a]thiolium/nitrosylpentacyano-ferrate
Blood pressure [2]; -20 mm Hg, cat
  Infusion dosage required for lowering of blood pressure: 1.5 ug/kg · min
Blood pressure [2]; -30 mm Hg, cat
  Infusion dosage required for lowering of blood pressure: 2.3 ug/kg · min
Blood pressure [2]; -40 mm Hg, cat
  Infusion dosage required for lowering of blood pressure: 3.5 ug/kg · min
Blood pressure [2]; -50 mm Hg, cat
  Infusion dosage required for lowering of blood pressure: 5.8 ug/kg · min
Blood pressure [2]; -55 mm Hg, cat
  Infusion dosage required for lowering of blood pressure: 7.8 ug/kg · min
Blood pressure [2]; -75 mm Hg, cat
  Infusion dosage required for lowering of blood pressure: 40 ug/kg · min
Blood pressure [2]; compared with all the other substances or mixtures
  limit of activity (in words): significantly higher limit of activity than all the other substances or mixtures
Blood pressure [2]; slight lowering of the blood pressure (to -30 mm Hg)
  strength of activity (in words): approximately comparable strengths of activity; also recorded: shows up best
[5]
  storability: can be stored for a very long time
[6]; aqueous ethanol
  solubility in aqueous ethanol: dissolves readily
[6]; water, absolute ethanol and cyclohexane
  solubility in water, absolute ethanol and cyclohexane: only very slightly soluble

## bis-(trimethaphan)-nitroprusside
[4]; ethanol-water, room temperature (22° C.), FIG. 1
  ethanol concentration required for concentrated stock solution: at least 40%
[4]; water
  solubility in water (in words): poorly soluble in water
[4]
  solubility in weaker ethanol: no longer completely soluble
Blood pressure [2]; nitroprusside and trimethaphan ions in molar ratio 1:2, FIG. 4 / Table I
  synergistic activity: maximum synergistic activity
[5]
  storability: can be stored without further additives
[3]; 5% dextrose, 125 + 500 mg (1 + 4), TNP 40 mg (highly purified product)
  solubility of mixtures / TNP: borderline amount of solvent: 100 mL
[3]; 40% ethanol, TNP 40 mg
  solubility of mixtures / TNP: borderline amount of solvent: 25 mL
[3]; 60% ethanol, 125 + 500 mg (1 + 4), TNP 40 mg
  solubility of mixtures / TNP: borderline amount of solvent: 2 mL

## bis-(trimethaphan)-nitroprusside semihydrate
[5]
  stability at storage: stable
  water loss at storage: does not lose water
[6]; room temperature
  solubility in 60% ethanol: about 3%
  solubility in water: 0.2%
